Earlier results as cited in patent publication US20260240869A1, “ANTIPSEUDOMONAL FUSIDIC ACID COMPOUNDS” (priority 2022, published 2026).

Legend:
Conditions in all cases: retrospective literature analysis (Table 6); cited from earlier work
[1] = tested on: WT PA
[2] = tested on: tolC EC
[3] = tested on: PA efflux KO
[4] = tested on: WT EC

SMILES	WT PA MIC [1]	tolC EC MIC [2]	PA efflux KO MIC [3]	WT EC MIC [4]
Cc1ccc2c(C)c3c(c(O)c2c1O)C(=O)[C@]1(O)C(=O)C(C(N)=O)=C(O)[C@H](N)[C@@H]1C3 [CDCHD]	1 µg/mL	0.25 µg/mL		
CC(=O)C1=C(O)[C@H](N)[C@@H]2Cc3c(c(O)c4c(O)c(C)ccc4c3C)C(=O)[C@]2(O)C1=O [CHD]	16 µg/mL	0.5 µg/mL		
Cc1c(N2CC[C@@H]([C@H](C)N)C2)c(F)cc2c(CN)cc(=O)n(C3CC3)c12 [Compound 10]	2 µg/mL	0.06 µg/mL	0.5 µg/mL	1 µg/mL
Cc1c(N2CC[C@@H]([C@H](C)N)C2)c(F)cc2c(CO)cc(=O)n(C3CC3)c12 [Compound 11]	16 µg/mL	0.25 µg/mL	4 µg/mL	16 µg/mL
CCNc1cc(F)cc2c1[nH]c1ncc(-c3cnc(OC)nc3)c(-n3cc(CN)c(C(F)(F)F)n3)c12 [Compound 17r]	1.3 µg/mL			0.31 µg/mL
CCNc1cc(F)cc2c1[nH]c1ncc(-c3cnc(OC)nc3)c(-n3ncc4c3CNC4)c12 [Compound 17x]	10 µg/mL			0.81 µg/mL
Cc1nc(-c2ccc(C(C)(C)C)cc2)ncc1C(=O)N[C@@H](CCN)C(=O)N(C)[C@@H]1C(=O)N[C@@H](C)C(=O)N[C@H](C(=O)NCC#N)Cc2ccc(OCCN)c(c2)-c2cc1ccc2OCCN [Compound G0775]	2 µg/mL	0.063 µg/mL		0.125 µg/mL
Cc1nc(-c2ccc(C(C)(C)C)cc2)ncc1C(=O)N[C@@H](CCO)C(=O)N(C)[C@@H]1C(=O)N[C@@H](C)C(=O)N[C@H](C(=O)NCC#N)Cc2ccc(O)c(c2)-c2cc1ccc2O [Compound G8126]	>64 µg/mL			32 µg/mL
